Reference: ChEMBL document CHEMBL1133901, “Synthesis and potassium channel opening activity of substituted 10H-benzo[4,5]furo[3,2-b]indole-and 5,10-dihydro-indeno[1,2-b]indole-1-carboxylic acids” (Bioorg Med Chem Lett, 2001)

Species on record: Rattus norvegicus
Assay: Concentration that relaxed KCl-induced contractions in rat aortic rings by 50%
Assay type: functional
Conditions: Aorta

Row | Structure (SMILES) | IC50 [µM]
1 | CC1(C)c2ccc([N+](=O)[O-])cc2-c2[nH]c3c(C(=O)O)cccc3c21 | 17.2
2 | O=C(O)c1cccc2c1[nH]c1c3cc(Br)ccc3oc21 | 118
3 | O=C(O)c1cccc2c1Cc1c-2[nH]c2ccc(Br)cc12 | 109
4 | O=C(O)c1cccc2c3c([nH]c12)-c1cc(Br)ccc1C3 | 210

Species on record: Rattus norvegicus
Assay: Concentration that relaxed KCl-induced contractions in rat detrusor strips by 50%
Assay type: functional
Conditions: not given

Row | Structure (SMILES) | IC50 [µM]
5 | Cn1c2c(C(=O)O)cccc2c2oc3ccc(Br)cc3c21 | > 30
6 | O=C(O)c1cccc2c1[nH]c1c3cc(Cl)ccc3oc21 | 5.8
7 | NC(=O)c1cccc2c1[nH]c1c3cc(Br)ccc3oc21 | > 30
8 | O=C(O)c1cccc2c1Cc1c-2[nH]c2ccc(Cl)cc12 | 22.6
9 | O=C(O)c1cccc2c1[nH]c1c3ccccc3oc21 | 30
10 | CC1(C)c2ccc([N+](=O)[O-])cc2-c2[nH]c3c(C(=O)O)cccc3c21 | 5.2
11 | O=Cc1cccc2c1[nH]c1c3cc(Br)ccc3oc21 | > 30
12 | O=C(O)c1cccc2c1Cc1c-2[nH]c2ccc(I)cc12 | 10.1
13 | COC(=O)c1cccc2c1[nH]c1c3cc(Br)ccc3oc21 | > 30
14 | O=C(O)c1cccc2c1[nH]c1c3cc([N+](=O)[O-])ccc3oc21 | 6.3
15 | O=C(O)c1cccc2c1[nH]c1c3cc(Br)ccc3oc21 | 15.1
16 | O=C(O)c1cccc2c1Cc1c-2[nH]c2ccc(Br)cc12 | 4.4
17 | O=C(O)c1cccc2c1[nH]c1c3cc(I)ccc3oc21 | 6.1
18 | O=C(O)c1cccc2c1Cc1c-2[nH]c2ccc(OC(F)(F)F)cc12 | 15.4
19 | NS(=O)(=O)c1ccc2[nH]c3c(c2c1)Cc1c(C(=O)O)cccc1-3 | > 30
